For one experiment, the target named is EED (Homo sapiens, UniProt O75530). Briefly: EED TR-FRET Binding Assay (modified LanthaScreen competition assay). The gist of the method:
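Competition binding in a modified LanthaScreen format, in 20 mM Tris-HCl pH 7.5, 200 mM NaCl, 0.01% Tween-20, 10 uM DTT and 0.05% BSA. Reactions ran 1 hour at 25° C before TR-FRET detection.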
In general terms: Time-resolved FRET reads energy transfer from a long-lived donor to a nearby acceptor.

The next experiment has as its system Pfeiffer cells. Briefly: CTG cell viability assay (CellTiter-Glo). The note with it: Homo sapiens, 240 h. Format: cell-based. On the procedure: 1,000 cells were plated into each well of 96-well Corning CellBing cell culture plates and incubated overnight at 37° C. in a humidified CO2 incubator. […] The cell culture plates were then incubated for 10 more days. CTG cell viability assay was performed on the cell culture samples by using CellTiter-Glo® Luminescent Cell Viability Assay Kit (Promega).
(In general: ATP-based viability assays read luminescence as a measure of living cells.)

The test system of experiment [1] is H3K27me3 in OCILY19 cells. Briefly: H3K27me3 AlphaLISA assay in OCILY19 cells. It is filed as cell-based. The settings on record: Homo sapiens, OCI-LY19, 144 h, 6 days with compound, read-out: OCILY-19 IC50. The method, then: 5,000 cells were plated into each well of 96-well Corning CellBing cell culture plates and incubated overnight at 37° C. in a humidified CO2 incubator. […] The cell culture plates were then incubated for 6 more days. H3K27me3 AlphaLISA assay was performed on the cell culture samples by using AlphaLISAR® H3K27me3 Cellular Detection Kit (PerkinElmer) and 96-well white half-area plates (PerkinElmer).
On the technique in general: Alpha assays give light when donor and acceptor beads are brought close together.

The mark [2] stands for this setting: Pfeiffer cells, 10 days with compound, CellTiter-Glo, read-out: Cell Proliferation IC50.
Setting [3] is: Pfeiffer, read-out: Cell Proliferation IC50 (uM).

Where two headings read alike, the source gives them in different places.

EED, sequence (O75530 whole entry): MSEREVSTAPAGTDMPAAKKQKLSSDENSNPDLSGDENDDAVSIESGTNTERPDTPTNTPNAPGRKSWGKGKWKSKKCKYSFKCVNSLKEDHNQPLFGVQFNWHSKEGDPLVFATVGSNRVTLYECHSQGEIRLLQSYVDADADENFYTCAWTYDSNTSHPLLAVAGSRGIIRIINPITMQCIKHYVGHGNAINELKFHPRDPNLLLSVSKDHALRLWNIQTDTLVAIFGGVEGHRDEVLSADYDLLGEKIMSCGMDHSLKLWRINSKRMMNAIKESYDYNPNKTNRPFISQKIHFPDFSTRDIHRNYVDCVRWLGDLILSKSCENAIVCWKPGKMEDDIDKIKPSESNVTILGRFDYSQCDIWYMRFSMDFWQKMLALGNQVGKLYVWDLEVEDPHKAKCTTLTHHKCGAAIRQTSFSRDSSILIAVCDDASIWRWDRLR

Take `CN(C)[C@H]1CN(C2CCc3cccc(F)c32)C[C@@H]1c1cn(C)c2c(C(=O)N3CCN(S(C)(=O)=O)CC3)cccc12` (mixture of isomers) [Example 126, rac-{3-[(3S,4R)-4-(dimethylamino)-1-(7-fluoro-2,3-dihydro-1H-inden-1-yl)pyrrolidin-3-yl]-1-methyl-1H-indol-7-yl}[4-(methanesulfonyl)piperazin-1-yl]methanone]: the IC50 at EED is 2.14 nM; in the experiment on Pfeiffer cells (setting [2]), 0.329 µM; in experiment [1] it was 220 nM.

For the compound `CC(=O)N1CCN(C(=O)c2cccc3c([C@H]4CN(C5CCc6cccc(F)c65)C[C@@H]4N(C)C)cn(C)c23)CC1` (mixture of isomers) [Example 128, rac-1-(4-{3-[(3S,4R)-4-(dimethylamino)-1-(7-fluoro-2,3-dihydro-1H-inden-1-yl)pyrrolidin-3-yl]-1-methyl-1H-indole-7-carbonyl}piperazin-1-yl)ethan-1-one], the IC50 came out at 1.03 nM at EED, 0.194 µM in the experiment on Pfeiffer cells (setting [2]) and 241 nM in experiment [1].

As to `CCS(=O)(=O)N1CCN(C(=O)c2cccc3c([C@H]4CN(C5CCc6cccc(F)c65)C[C@@H]4N(C)C)cn(C)c23)CC1` (mixture of isomers) [Example 130, rac-{3-[(3S,4R)-4-(dimethylamino)-1-(7-fluoro-2,3-dihydro-1H-inden-1-yl)pyrrolidin-3-yl]-1-methyl-1H-indol-7-yl}[4-(ethanesulfonyl)piperazin-1-yl]methanone], the IC50 is 1.05 nM at EED, 0.311 µM in the experiment with Pfeiffer cells (setting [2]) and 306 nM in experiment [1].

As to `CN(C)[C@@H]1CN(C2CCc3cccc(F)c32)C[C@H]1c1ccc(N2CCN(C(=O)CNS(C)(=O)=O)CC2)nc1` (mixture of isomers) [Example 155, rac-N-[2-(4-{5-[(3R,4S)-4-(dimethylamino)-1-(7-fluoro-2,3-dihydro-1H-inden-1-yl)pyrrolidin-3-yl]pyridin-2-yl}piperazin-1-yl)-2-oxoethyl]methanesulfonamide], the values for the IC50 (on EED; in the experiment on Pfeiffer cells (setting [2]); in experiment [1]) were 1.75 nM, 0.395 µM and 3220 nM, respectively.

Consider `CN(C)[C@H]1CN(C2CCc3cccc(F)c32)C[C@@H]1C1CCN(c2cnc(C(N)=O)cn2)CC1` (mixture of isomers) [Example 163, rac-5-{4-[(3S,4R)-4-(dimethylamino)-1-(7-fluoro-2,3-dihydro-1H-inden-1-yl)pyrrolidin-3-yl]piperidin-1-yl}pyrazine-2-carboxamide], for which the IC50 on EED is 0.638 nM; in the experiment with Pfeiffer cells (setting [2]), 0.271 µM; in experiment [1], 583 nM.

In the case of `CN(C)[C@H]1CN([C@H]2CCc3cccc(F)c32)C[C@@H]1c1ccc(S(C)(=O)=O)cc1` [Example 11, (3R,4S)-1-[(1S)-7-fluoro-2,3-dihydro-1H-inden-1-yl]-4-[4-(methanesulfonyl)phenyl]-N,N-dimethylpyrrolidin-3-amine], the figures for the IC50 (on EED; with Pfeiffer cells (setting [2]); in experiment [1]) were 23.1 nM, 0.301 µM and 171 nM, respectively.

Consider `CN(C)[C@H]1CN([C@H]2CCc3cccc(F)c32)C[C@@H]1c1cn(C)c2ccccc12` [Example 77, (3R,4S)-1-[(1S)-7-fluoro-2,3-dihydro-1H-inden-1-yl]-N,N-dimethyl-4-(1-methyl-1H-indol-3-yl)pyrrolidin-3-amine], for which the results for the IC50 (at EED (read-out: TR-FRET Binding); in the experiment with Pfeiffer cells (setting [3]); in experiment [1]) were 1.03 nM, 1.07 µM and 655 nM, respectively.

For the compound `CN(C)[C@H]1CN(C2CCc3ccccc32)C[C@@H]1c1cn(C)c2ccccc12` (stereo partly drawn) [Example 88, (3R,4S)-1-(2,3-dihydro-1H-inden-1-yl)-N,N-dimethyl-4-(1-methyl-1H-indol-3-yl)pyrrolidin-3-amine], the IC50 on EED came out at 26.2 nM; in the experiment with Pfeiffer cells (setting [3]), 3.55 µM; in experiment [1], 2440 nM.

For `CN(C)[C@H]1CN(C2CCc3cccc(Cl)c32)C[C@@H]1c1cn(C)c2ccccc12` (stereo partly drawn) [Example 89, (3R,4S)-1-(7-chloro-2,3-dihydro-1H-inden-1-yl)-N,N-dimethyl-4-(1-methyl-1H-indol-3-yl)pyrrolidin-3-amine], the IC50 was 31 nM on EED, 6.37 µM with Pfeiffer cells (setting [2]) and 4350 nM in experiment [1].

The record behind these values is patent publication US9957274B2, “Indane inhibitors of EED and methods of their use” (AbbVie Inc., priority 2016, dated 2018).
